From patent US20260198498A1, “FUNGICIDAL COMPOSITIONS” (SYNGENTA CROP PROTECTION AG, priority 2022, published 2026)

Key:
[1] = tested on: Botryotinia fuckeliana (Botrytis cinerea); experiment: Example B2: Botryotinia fuckeliana (Botrytis cinerea)/Liquid Culture (Gray Mould); assay type: cell-based; settings: liquid culture, growth inhibition photometrically 3 to 4 days after application, read-out: control of Botryotinia fuckeliana
Experimental: Example B2: Botryotinia fuceliana (Botrytis cinerea)/Liquid Culture (Gray Mould)
Conidia of the fungus from cryogenic storage are directly mixed into nutrient broth (Vogels broth). After placing a (DMSO) solution of test compound into a microtiter plate (96-well format), the nutrient broth containing the fungal spores is added. The test plates are incubated at 24° C. and the inhibition of growth is determined photometrically 3 to 4 days after application.

[2] = tested on: Glomerella lagenarium (Colletotrichum lagenarium); experiment: Example B5: Glomerella lagenarium (Colletotrichum lagenarium)/Liquid Culture (Anthracnose); assay type: cell-based; settings: Colletotrichum orbiculare, liquid culture, photometrically 3 to 4 days after application, read-out: control of Glomerella lagenarium
Experimental: Example B5: Glomerella lagenarium (Colletotrichum lagenarium)/Liquid Culture (Anthracnose)
Conidia of the fungus from cryogenic storage are directly mixed into nutrient broth (PDB potato dextrose broth). After placing a (DMSO) solution of test compound into a microtiter plate (96-well format), the nutrient broth containing the fungal spores is added. The test plates are incubated at 24° C. and the inhibition of growth is measured photometrically 3 to 4 days after application.

[3] = tested on: Phaeosphaeria nodorum (Septoria nodorum); experiment: Example B11: Phaeosphaeria nodorum (Septoria nodorum)/Wheat/Leaf Disc Preventative (Glume Blotch); assay type: in vivo; settings: Parastagonospora nodorum, foliar, wheat leaf segments, inoculated 2 days after application
Experimental: Example B11: Phaeosphaeria nodorum (Septoria nodorum)/Wheat/Leaf Disc Preventative (Glume Blotch)
Wheat leaf segments cv. Kanzler are placed on agar in a multiwell plate (24-well format) and sprayed with the formulated test compound diluted in water. The leaf disks are inoculated with a spore suspension of the fungus 2 days after application. The inoculated test leaf disks are incubated at 20° C. and 75% rh under a light regime of 12 h light/12 h darkness in a climate cabinet and the activity of a compound is assessed as percent disease control compared to untreated when an appropriate level of disease damage appears in untreated check leaf disks (5-7 days after application).

[4] = tested on: Monographella nivalis (Microdochium nivale); experiment: Example B12: Monographella nivalis (Microdochium nivale)/Liquid Culture (Foot Rot Cereals); assay type: cell-based; settings: liquid culture, photometrically 4 to 5 days after application, read-out: control of Monographella nivalis
Experimental: Example B12: Monographella nivalis (Microdochium nivale)/Liquid Culture (Foot Rot Cereals)
(§1) Conidia of the fungus from cryogenic storage are directly mixed into nutrient broth (PDB potato dextrose broth). After placing a (DMSO) solution of test compound into a microtiter plate (96-well format), the nutrient broth containing the fungal spores is added. The test plates are incubated at 24° C. and the inhibition of growth is determined photometrically 4 to 5 days after application.

[5] = tested on: Mycosphaerella arachidis (Cercospora arachidicola); experiment: Example B13: Mycosphaerella arachidis (Cercospora arachidicola)/Liquid Culture (Early Leaf Spot); assay type: cell-based; settings: liquid culture, photometrically 4 to 5 days after application, read-out: control of Mycosphaerella arachidis
Experimental: Example B13: Mycosphaerella arachidis (Cercospora arachidicola)/Liquid Culture (Early Leaf Spot)
as §1

Pyrenophora teres = experiment: Example B18: Pyrenophora teres/Barley/Leaf Disc Preventative (Net Blotch); assay type: in vivo; settings: foliar, barley leaf segments, inoculated 2 days after application
Experimental: Example B18: Pyrenophora teres/Barley/Leaf Disc Preventative (Net Blotch)
Barley leaf segments cv. Hasso are placed on agar in a multiwell plate (24-well format) and sprayed with the formulated test compound diluted in water. The leaf segments are inoculated with a spore suspension of the fungus 2 days after application. The inoculated leaf segments are incubated at 20° C. and 65% rh under a light regime of 12 h light/12 h darkness in a climate cabinet and the activity of a compound is assessed as disease control compared to untreated when an appropriate level of disease damage appears in untreated check leaf segments (5-7 days after application).

[6] = tested on: Mycosphaerella graminicola (Septoria tritici); experiment: Example B21: Mycosphaerella graminicola (Septoria tritici)/Liquid Culture (Septoria Blotch); assay type: cell-based; settings: Zymoseptoria tritici, liquid culture, photometrically 4-5 days after application, read-out: control of Mycosphaerella graminicola
Experimental: Example B21: Mycosphaerella graminicola (Septoria tritici)/Liquid Culture (Septoria Blotch)
Conidia of the fungus from cryogenic storage are directly mixed into nutrient broth (PDB potato dextrose broth). After placing a (DMSO) solution of test compound into a microtiter plate (96-well format), the nutrient broth containing the fungal spores is added. The test plates are incubated at 24° C. and the inhibition of growth is determined photometrically 4-5 days after application.

Cn1ncc(C2CN(C(=O)c3cc(-c4ccc(F)cc4F)on3)Cc3ccccc32)c1Cl (stereo not drawn) [X.11, [4-(5-chloro-1-methyl-pyrazol-4-yl)-3,4-dihydro-1H-isoquinolin-2-yl]-[5-(2,4-difluorophenyl)isoxazol-3-yl]methanone]
≥ 80%: inhibition of growth at 20 ppm [1] | inhibition of growth at 20 ppm [2] | pest or weed control at 200 ppm [3] | inhibition of growth at 20 ppm [4] | inhibition of growth at 20 ppm [5] | pest or weed control at 200 ppm (Pyrenophora teres) | inhibition of growth at 20 ppm [6]

Cc1c(C2CN(C(=O)c3nnc(-c4ncc(F)cc4F)s3)Cc3ccccc32)cnn1C (stereo not drawn) [X.28, [5-(3,5-difluoro-2-pyridyl)-1,3,4-thiadiazol-2-yl]-[4-(1,5-dimethylpyrazol-4-yl)-3,4-dihydro-1H-isoquinolin-2-yl]methanone]
≥ 80%: inhibition of growth at 20 ppm [2] | pest or weed control at 200 ppm [3] | inhibition of growth at 20 ppm [5] | pest or weed control at 200 ppm (Pyrenophora teres) | inhibition of growth at 20 ppm [6]

Cn1cc(C2CN(C(=O)c3cc(-c4ccncc4)on3)Cc3ccccc32)cn1 (stereo not drawn) [X.23, [4-(1-methylpyrazol-4-yl)-3,4-dihydro-1H-isoquinolin-2-yl]-[5-(4-pyridyl)isoxazol-3-yl]methanone]
≥ 80%: inhibition of growth at 20 ppm [6]

Cn1cc(C2(C)CN(C(=O)c3cc(-c4ccc(F)cc4F)on3)Cc3ccccc32)cn1 (stereo not drawn) [X.14, [5-(2,4-difluorophenyl)isoxazol-3-yl]-[4-methyl-4-(1-methylpyrazol-4-yl)-1,3-dihydroisoquinolin-2-yl]methanone]
≥ 80%: inhibition of growth at 20 ppm [1] | inhibition of growth at 20 ppm [2] | pest or weed control at 200 ppm [3] | inhibition of growth at 20 ppm [4] | inhibition of growth at 20 ppm [5] | pest or weed control at 200 ppm (Pyrenophora teres) | inhibition of growth at 20 ppm [6]

CCCc1nnc(C(=O)N2Cc3ccccc3C(c3cnn(C)c3C)C2)s1 (stereo not drawn) [X.03, [4-(1,5-dimethylpyrazol-4-yl)-3,4-dihydro-1H-isoquinolin-2-yl]-(5-propyl-1,3,4-thiadiazol-2-yl)methanone]
≥ 80%: inhibition of growth at 20 ppm [2] | inhibition of growth at 20 ppm [5] | inhibition of growth at 20 ppm [6]

COC(=O)C1c2ccccc2C(c2cnn(C)c2)CN1C(=O)c1cc(-c2ccc(F)cc2F)on1 (stereo not drawn) [X.09, methyl 2-[5-(2,4-difluorophenyl)isoxazole-3-carbonyl]-4-(1-methylpyrazol-4-yl)-3,4-dihydro-1H-isoquinoline-1-carboxylate]
≥ 80%: inhibition of growth at 20 ppm [1] | pest or weed control at 200 ppm [3] | inhibition of growth at 20 ppm [4] | inhibition of growth at 20 ppm [5] | inhibition of growth at 20 ppm [6]

Cc1nn(C)c(C)c1C1CN(C(=O)c2cc(-c3ccc(F)cc3F)on2)Cc2ncccc21 (stereo not drawn) [X.15, [5-(2,4-difluorophenyl)isoxazol-3-yl]-[5-(1,3,5-trimethylpyrazol-4-yl)-6,8-dihydro-5H-1,7-naphthyridin-7-yl]methanone]
≥ 80%: inhibition of growth at 20 ppm [2] | inhibition of growth at 20 ppm [4] | inhibition of growth at 20 ppm [5] | pest or weed control at 200 ppm (Pyrenophora teres) | inhibition of growth at 20 ppm [6]

CC(=O)c1c(C2CN(C(=O)c3cc(-c4ccc(F)cc4F)on3)Cc3ccccc32)cnn1C (stereo not drawn) [X.08, 1-[4-[2-[5-(2,4-difluorophenyl)isoxazole-3-carbonyl]-3,4-dihydro-1H-isoquinolin-4-yl]-2-methyl-pyrazol-3-yl]ethanone]
≥ 80%: inhibition of growth at 20 ppm [2] | inhibition of growth at 20 ppm [4] | inhibition of growth at 20 ppm [5] | pest or weed control at 200 ppm (Pyrenophora teres) | inhibition of growth at 20 ppm [6]

Cn1cc(C2(C)CN(C(=O)c3nnc(-c4ccc(F)cc4F)s3)Cc3ccccc32)cn1 (stereo not drawn) [X.07, [5-(2,4-difluorophenyl)-1,3,4-thiadiazol-2-yl]-[4-methyl-4-(1-methylpyrazol-4-yl)-1,3-dihydroisoquinolin-2-yl]methanone]
≥ 80%: inhibition of growth at 20 ppm [1] | inhibition of growth at 20 ppm [2] | inhibition of growth at 20 ppm [4] | inhibition of growth at 20 ppm [5] | inhibition of growth at 20 ppm [6]

Cn1cc(C2CN(C(=O)c3nnc(-c4ccccc4)o3)Cc3ccccc32)cn1 (stereo not drawn) [X.19, [4-(1-methylpyrazol-4-yl)-3,4-dihydro-1H-isoquinolin-2-yl]-(5-phenyl-1,3,4-oxadiazol-2-yl)methanone]
≥ 80%: inhibition of growth at 20 ppm [1] | inhibition of growth at 20 ppm [2] | inhibition of growth at 20 ppm [4] | inhibition of growth at 20 ppm [5] | inhibition of growth at 20 ppm [6]

Cn1cc(C2CN(C(=O)c3nnc(-c4ccc(F)cc4)o3)Cc3ccccc32)cn1 (stereo not drawn) [X.10, [5-(4-fluorophenyl)-1,3,4-oxadiazol-2-yl]-[4-(1-methylpyrazol-4-yl)-3,4-dihydro-1H-isoquinolin-2-yl]methanone]
≥ 80%: inhibition of growth at 20 ppm [2] | pest or weed control at 200 ppm [3] | inhibition of growth at 20 ppm [4] | pest or weed control at 200 ppm (Pyrenophora teres) | inhibition of growth at 20 ppm [6]

Cc1c(C2CN(C(=O)c3nnc(-c4ccc(F)cc4F)o3)Cc3ccccc32)cnn1C (stereo not drawn) [X.01, [5-(2,4-difluorophenyl)-1,3,4-oxadiazol-2-yl]-[4-(1,5-dimethylpyrazol-4-yl)-3,4-dihydro-1H-isoquinolin-2-yl]methanone]
≥ 80%: inhibition of growth at 20 ppm [2] | inhibition of growth at 20 ppm [4] | pest or weed control at 200 ppm (Pyrenophora teres) | inhibition of growth at 20 ppm [6]

COc1ccc2c(c1)[C@@H](c1cnn(C)c1)CN(C(=O)c1cc(-c3ccc(F)cc3F)on1)[C@H]2C [X.05, [5-(2,4-difluorophenyl)isoxazol-3-yl]-[(1S,4S)-6-methoxy-1-methyl-4-(1-methylpyrazol-4-yl)-3,4-dihydro-1H-isoquinolin-2-yl]methanone]
≥ 80%: inhibition of growth at 20 ppm [1] | inhibition of growth at 20 ppm [4] | inhibition of growth at 20 ppm [5] | inhibition of growth at 20 ppm [6]

Cn1cc(C2CN(C(=O)c3cc(C4CCCCC4)no3)Cc3ccccc32)cn1 (stereo not drawn) [X.18, (3-cyclohexylisoxazol-5-yl)-[4-(1-methylpyrazol-4-yl)-3,4-dihydro-1H-isoquinolin-2-yl]methanone]
≥ 80%: inhibition of growth at 20 ppm [2] | inhibition of growth at 20 ppm [4] | inhibition of growth at 20 ppm [5] | inhibition of growth at 20 ppm [6]

Cc1c(C2CN(C(=O)c3nnc(C4CCCCC4)s3)Cc3ccccc32)cnn1C (stereo not drawn) [X.04, (5-cyclohexyl-1,3,4-thiadiazol-2-yl)-[4-(1,5-dimethylpyrazol-4-yl)-3,4-dihydro-1H-isoquinolin-2-yl]methanone]
≥ 80%: inhibition of growth at 20 ppm [2] | inhibition of growth at 20 ppm [4] | inhibition of growth at 20 ppm [5] | inhibition of growth at 20 ppm [6]
